Experimental data as given in PubChem BioAssay AID330 (DTP/NCI, 2004).
Values joined by “and” are separate entries in the source; they are usually repeats but may differ in a detail not shown here. Identical values can stand only once. Toxic doses and inconclusive results are not listed. Rule for the calls: active = survival T/C of 150% or more; inactive = T/C below 125% in these data.

Tested on: P388 leukemia ip, CD2F1 mice, survival T/C
Test: NCI In Vivo Anticancer Drug Screen. Data for tumor model P388 Leukemia (intraperitoneal) in CD2F1 (CDF1) mice
Conditions: endpoint: median survival time, higher = longer survival
How it was run: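 Mice carrying the transplanted tumor received test compound or vehicle. Survival was recorded in each group, and the value is the treated-group measurement divided by that of the vehicle-treated control group.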

[1] = dose: 50.0 mg/kg/injection, schedule: Q01DX009 (ip), vehicle: Klucel (hydroxypropylcellulose) (HPC)
[2] = dose: 100.0 mg/kg/injection, schedule: Q01DX009 (ip), vehicle: Klucel (hydroxypropylcellulose) (HPC)
[3] = dose: 200.0 mg/kg/injection, schedule: Q01DX009 (ip), vehicle: Klucel (hydroxypropylcellulose) (HPC)
[4] = dose: 100.0 mg/kg/injection, schedule: Q04DX002 (ip), vehicle: saline with Tween-80
[5] = dose: 200.0 mg/kg/injection, schedule: Q04DX002 (ip), vehicle: saline with Tween-80
[6] = dose: 100.0 mg/kg/injection, schedule: Q01DX009 (ip), vehicle: saline with Tween-80
[7] = dose: 200.0 mg/kg/injection, schedule: Q01DX009 (ip), vehicle: saline with Tween-80
[8] = dose: 50.0 mg/kg/injection, schedule: Q01DX005 (ip), vehicle: saline with Tween-80
[9] = dose: 50.0 mg/kg/injection, schedule: Q01DX009 (ip), vehicle: saline with Tween-80

Measured: T/C

O=S(=O)(c1ccc(NC(=S)NCc2ccco2)cc1)N1CCCCC1
inactive: [1] 88 % of control | [2] 93 % of control | [3] 92 % of control

CCc1c(C)[nH]c2ccc(N)cc12
inactive: dose: 25.0 mg/kg/injection, schedule: Q04DX003 (ip), vehicle: saline with Tween-80 99 % of control | dose: 50.0 mg/kg/injection, schedule: Q04DX003 (ip), vehicle: saline with Tween-80 93 % of control | dose: 100.0 mg/kg/injection, schedule: Q04DX003 (ip), vehicle: saline with Tween-80 93 % of control | dose: 200.0 mg/kg/injection, schedule: Q04DX003 (ip), vehicle: saline with Tween-80 110 % of control

CCOc1cccc2c1C(=O)c1cccc(OCC)c1C2(O)C#Cc1ccccc1 (configuration not stated)
inactive: [4] 90 % of control | [5] 87 % of control | dose: 400.0 mg/kg/injection, schedule: Q04DX002 (ip), vehicle: saline with Tween-80 86 % of control

COc1ccccc1C1NC(c2ccccc2OC)C2CCCC1C2O (configuration not stated)
inactive: dose: 100.0 mg/kg/injection, schedule: Q04DX003 (ip), vehicle: saline 98 % of control | dose: 200.0 mg/kg/injection, schedule: Q04DX003 (ip), vehicle: saline 97 % of control | dose: 400.0 mg/kg/injection, schedule: Q04DX003 (ip), vehicle: saline 95 % of control

CCO/C=C1\SC(=S)N(c2cccc(OC)c2)C1=O
inactive: [6] 118 % of control | dose: 117.0 mg/kg/injection, schedule: Q04DX003 (ip), vehicle: saline with Tween-80 113 % of control | dose: 178.0 mg/kg/injection, schedule: Q04DX003 (ip), vehicle: saline with Tween-80 118 % of control | [7] 118 % of control | dose: 266.0 mg/kg/injection, schedule: Q04DX003 (ip), vehicle: saline with Tween-80 109 % of control

COc1cccc(NC2=NCCS2)c1
inactive: [8] 102 % of control | dose: 100.0 mg/kg/injection, schedule: Q01DX005 (ip), vehicle: saline with Tween-80 105 % of control | dose: 200.0 mg/kg/injection, schedule: Q01DX005 (ip), vehicle: saline with Tween-80 98 % of control

O=C1NC(=O)C2(CCCc3ccc(N(CCO)CCO)cc32)N1 (configuration not stated)
inactive: dose: 50.0 mg/kg/injection, schedule: Q01DX009 (ip), vehicle: DMSO 106 % of control | dose: 100.0 mg/kg/injection, schedule: Q01DX009 (ip), vehicle: DMSO 103 % of control | dose: 200.0 mg/kg/injection, schedule: Q01DX009 (ip), vehicle: DMSO 106 % of control

O=C(Nc1ccc(Cl)cc1)Nc1nnc(/C=C/c2ccccc2)o1
inactive: dose: 60.0 mg/kg/injection, schedule: Q01DX005 (ip), vehicle: saline with Tween-80 96 % of control | dose: 120.0 mg/kg/injection, schedule: Q01DX005 (ip), vehicle: saline with Tween-80 96 % of control

CCOC(=O)NCCCBr
inactive: [9] 105 % of control | [6] 99 % of control | [7] 107 % of control

Cc1nc(SCC(N)=O)nc2sc(SCC(N)=O)nc12
inactive: dose: 100.0 mg/kg/injection, schedule: Q04DX002 (ip), vehicle: suspension in saline 96 % of control | dose: 200.0 mg/kg/injection, schedule: Q04DX002 (ip), vehicle: suspension in saline 99 % of control | dose: 400.0 mg/kg/injection, schedule: Q04DX002 (ip), vehicle: suspension in saline 98 % of control

COC(=O)c1ccc(C(N)=O)nc1
inactive: dose: 25.0 mg/kg/injection, schedule: Q04DX002 (ip), vehicle: Klucel (hydroxypropylcellulose) (HPC) 97 % of control | dose: 50.0 mg/kg/injection, schedule: Q04DX002 (ip), vehicle: Klucel (hydroxypropylcellulose) (HPC) 101 % of control | dose: 100.0 mg/kg/injection, schedule: Q04DX002 (ip), vehicle: Klucel (hydroxypropylcellulose) (HPC) 96 % of control | dose: 200.0 mg/kg/injection, schedule: Q04DX002 (ip), vehicle: Klucel (hydroxypropylcellulose) (HPC) 105 % of control

CC(=O)OCN(C)N=Nc1ccc(C(C)=O)cc1
inactive: dose: 60.0 mg/kg/injection, schedule: Q01DX005 (ip), vehicle: Klucel (hydroxypropylcellulose) (HPC) 106 % of control and 114 % of control and 118 % of control | dose: 120.0 mg/kg/injection, schedule: Q01DX005 (ip), vehicle: Klucel (hydroxypropylcellulose) (HPC) 100 % of control and 109 % of control and 124 % of control | dose: 480.0 mg/kg/injection, schedule: Q01DX005 (ip), vehicle: Klucel (hydroxypropylcellulose) (HPC) 108 % of control

O=c1[nH]c(-c2ccncc2)nnc1-c1ccc(Cl)cc1
inactive: [4] 88 % of control | [5] 93 % of control

O=C1C(C(=NC2CCCCC2)c2ccccc2)=C(O)c2ccccc21
inactive: [4] 104 % of control | [5] 100 % of control

CCOC(=O)CCN1CC=CCC1
inactive: dose: 50.0 mg/kg/injection, schedule: Q01DX005 (ip), vehicle: saline 105 % of control | dose: 100.0 mg/kg/injection, schedule: Q01DX005 (ip), vehicle: saline 102 % of control | dose: 200.0 mg/kg/injection, schedule: Q01DX005 (ip), vehicle: saline 102 % of control

CCn1c(=O)c2[nH]c(-n3c(Cl)nc4c3c(=O)n(CC)c(=O)n4CC)nc2n(CC)c1=O
inactive: [1] 101 % of control | [2] 98 % of control | [3] 120 % of control

C[n+]1nnn(/N=C\c2ccccc2)c1N
inactive: dose: 12.5 mg/kg/injection, schedule: Q01DX009 (ip), vehicle: Klucel (hydroxypropylcellulose) (HPC) 100 % of control | dose: 25.0 mg/kg/injection, schedule: Q01DX009 (ip), vehicle: Klucel (hydroxypropylcellulose) (HPC) 97 % of control | [1] 104 % of control

Nc1c(Cl)[nH]cnc1=S
inactive: dose: 100.0 mg/kg/injection, schedule: Q01DX009 (ip), vehicle: suspension in saline 106 % of control | dose: 200.0 mg/kg/injection, schedule: Q01DX009 (ip), vehicle: suspension in saline 105 % of control | dose: 400.0 mg/kg/injection, schedule: Q01DX009 (ip), vehicle: suspension in saline 99 % of control

CC(=O)OCn1cc2c3c(cccc31)C1CC(C)CN(C)C1C2 (configuration not stated)
inactive: dose: 12.5 mg/kg/injection, schedule: Q01DX005 (ip), vehicle: saline with Tween-80 98 % of control | dose: 25.0 mg/kg/injection, schedule: Q01DX005 (ip), vehicle: saline with Tween-80 106 % of control | [8] 100 % of control

COC(=O)C[N+](=O)[O-]
inactive: dose: 50.0 mg/kg/injection, schedule: Q01DX009 (ip), vehicle: saline 103 % of control | dose: 100.0 mg/kg/injection, schedule: Q01DX009 (ip), vehicle: saline 99 % of control | dose: 200.0 mg/kg/injection, schedule: Q01DX009 (ip), vehicle: saline 110 % of control

O=NNc1cnc(-c2ccccc2)c(-c2ccccc2)n1
inactive: dose: 3.12 mg/kg/injection, schedule: Q01DX009 (ip), vehicle: water 103 % of control | dose: 6.25 mg/kg/injection, schedule: Q01DX009 (ip), vehicle: water 104 % of control | dose: 12.5 mg/kg/injection, schedule: Q01DX009 (ip), vehicle: water 105 % of control and 111 % of control | dose: 25.0 mg/kg/injection, schedule: Q01DX009 (ip), vehicle: water 116 % of control and 117 % of control | dose: 100.0 mg/kg/injection, schedule: Q01DX009 (ip), vehicle: water 96 % of control

C#CCn1cnc2c(=S)nc[nH]c21
inactive: dose: 180.0 mg/kg/injection, schedule: Q01DX009 (ip), vehicle: saline with Tween-80 87 % of control

N=C(N)N
inactive: [9] 100 % of control | [6] 100 % of control

COc1ccc(S(N)(=O)=O)cc1C(=O)N1CCN2CCCC2C1 (configuration not stated)
inactive: dose: 60.0 mg/kg/injection, schedule: Q01DX005 (ip), vehicle: saline 100 % of control | dose: 120.0 mg/kg/injection, schedule: Q01DX005 (ip), vehicle: saline 100 % of control | dose: 240.0 mg/kg/injection, schedule: Q01DX005 (ip), vehicle: saline 94 % of control
